Source: patent US6143764A, “Quinoline and quinazoline derivatives inhibiting platelet-derived growth factor receptor autophosphorylation and pharmaceutical compositions containing the same” (priority 1995, dated 2000)

Biological target: T1, PDGF receptor (Rattus norvegicus, UniProt Q05030)
T1 construct: cultured rat mesangial cells which are known to have the PDGF receptor; endogenous in cells; host or cells: primary mesangial cells cultured from glomeruli of Wistar-Kyoto rats (Charles River Japan), more than 5 passages
T1 sequence (Q05030 32-1097): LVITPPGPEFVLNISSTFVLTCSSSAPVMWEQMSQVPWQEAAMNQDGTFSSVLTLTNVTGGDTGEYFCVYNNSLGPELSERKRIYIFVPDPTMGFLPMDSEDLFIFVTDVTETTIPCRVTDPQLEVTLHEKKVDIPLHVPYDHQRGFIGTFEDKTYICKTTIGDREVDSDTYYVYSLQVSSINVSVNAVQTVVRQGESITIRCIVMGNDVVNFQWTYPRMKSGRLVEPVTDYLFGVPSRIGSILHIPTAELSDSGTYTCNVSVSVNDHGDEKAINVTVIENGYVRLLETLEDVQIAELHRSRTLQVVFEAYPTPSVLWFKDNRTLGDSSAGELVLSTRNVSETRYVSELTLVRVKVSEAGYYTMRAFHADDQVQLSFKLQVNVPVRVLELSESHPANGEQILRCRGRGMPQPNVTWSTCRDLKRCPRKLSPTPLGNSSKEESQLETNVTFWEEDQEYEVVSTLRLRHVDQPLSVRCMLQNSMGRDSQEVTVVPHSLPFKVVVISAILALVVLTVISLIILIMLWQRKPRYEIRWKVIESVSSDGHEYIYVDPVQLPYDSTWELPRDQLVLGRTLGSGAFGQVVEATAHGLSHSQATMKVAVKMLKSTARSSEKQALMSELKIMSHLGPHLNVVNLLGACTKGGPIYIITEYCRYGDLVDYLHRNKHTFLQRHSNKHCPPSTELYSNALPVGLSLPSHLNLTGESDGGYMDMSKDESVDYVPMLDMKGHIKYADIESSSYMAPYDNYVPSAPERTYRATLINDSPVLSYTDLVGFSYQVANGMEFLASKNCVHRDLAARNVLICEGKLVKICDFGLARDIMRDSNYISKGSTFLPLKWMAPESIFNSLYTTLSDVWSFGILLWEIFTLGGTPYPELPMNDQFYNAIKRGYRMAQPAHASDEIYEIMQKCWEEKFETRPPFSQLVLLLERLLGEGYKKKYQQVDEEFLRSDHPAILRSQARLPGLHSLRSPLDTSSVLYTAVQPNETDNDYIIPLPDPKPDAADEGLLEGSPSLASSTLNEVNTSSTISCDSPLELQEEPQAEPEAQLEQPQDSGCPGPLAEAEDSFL
Assay: PDGF receptor autophosphorylation inhibition in cultured rat mesangial cells
Assay type: cell-based
Conditions: PDGF-BB 50 ng/ml
Protocol: 1. Cultivation of rat mesangial cells
The glomerulus-derived adhesive cells were subcultured several times to obtain mesangial cells. The mesangial cells subcultured more than 5 passages were used for the assay.
2.Evaluation of PDGF receptor autophosphorylation inhibition
The mesangial cells were seeded in 24-well flat-bottom microtiter plates and then cultured in the medium containing 10% FCS for 2 days. When the cells were grown to about 3×10^4 cells per well, the medium was changed to the medium containing 0.5% FCS, the cultivation was continued for another 3 days, and then cell growth was arrested. The culture medium was removed, the adhered cells were washed with 500 μl of the medium, and 250 μl of the medium containing 0.1% bovine serum albumin (hereinafter abbreviated to BSA) was then added. A test drug dissolved in 1.38 μl of dimethyl sulfoxide (hereinafter abbreviated to DMSO) was added to this culture medium, and the admixture was incubated at 37° C. for 1 hour. Recombinant human platelet-derived growth factor BB chain (hereinafter abbreviated to PDGF-BB) was dissolved in the medium containing 0.1% BSA, 25 μl per well of the solution was added at final 50 ng/ml, and the incubation was continued at 37° C. for 10 minutes. […] The cells were allowed to stand at 4° C. for 30 minutes for lysis, and the resulting solution was thoroughly admixed with an equal amount of Tris-buffered physiological saline containing 1% sodium dodecyl sulfate (hereinafter abbreviated to SDS). […] After the electrophoresis, proteins in the gel were electrically transferred to a PVDF filter, which was then subjected to Western blotting using monoclonal antibodies against phosphotyrosine. Bands of PDGF receptor (molecular weight: about 180 Kda) which were autophosphorylated due to the addition of PDGF-BB were quantitated by a densitometer. Autophosphorylation rates for individual wells with drugs were calculated by setting measurements for PDGF receptor autophosphorylation in the wells without drugs in the presence and absence of PDGF-BB as 100% and 0%, respectively.

SMILES	IC50 [nM]
COc1cccc(Oc2ccnc3cc(OC)c(OC)cc23)c1 [Compound 2, 6,7-Dimethoxy-4-(3-methoxyphenoxy)quinoline]	440
COc1cc2nccc(Oc3cccc(C(C)=O)c3)c2cc1OC [Compound 6]	450
COc1cc2nccc(Oc3ccc4[nH]ccc4c3)c2cc1OC [Compound 16, 6,7-Dimethoxy-4-(5-indolyloxy)quinoline]	50
COc1cc2nccc(Oc3ccc(C(=O)c4ccc(C(F)(F)F)cc4)cc3)c2cc1OC [Compound 29, (4-Trifluoromethylphenyl){4-[(6,7-dimethoxy-4-quinolyl)oxy]phenyl}methanone]	800
COc1cc2nccc(Oc3ccc(NC(=O)Nc4ccc(Oc5ccccc5)cc4)cc3)c2cc1OC [Compound 50, N-{4-[(6,7-Dimethoxy-4-quinolinyl)oxy]phenyl}-N'-(4-phenoxyphenyl)urea]	67
COc1cc2nccc(Oc3ccc(NC(=O)C4CCCCC4)cc3)c2cc1OC [Compound 63, N-{4-[(6,7-Dimethoxy-4-quinolinyl)oxy]phenyl}-cyclohexanecarboxamide]	400
COc1cc2nccc(Oc3ccc(NC(=O)c4ccc([N+](=O)[O-])cc4)cc3)c2cc1OC [Compound 66, N-{4-[(6,7-Dimethoxy-4-quinolinyl)oxy]phenyl}-(4-nitrophenyl)carboxamide]	130
COc1cc2nccc(Oc3ccc(NC(=O)c4ccc(C(C)=O)cc4)cc3)c2cc1OC [Compound 68, N-{4-[(6,7-Dimethoxy-4-quinolinyl)oxy]phenyl}-(4-acetylphenyl)carboxamide]	440
CCCCc1ccc(C(=O)Nc2ccc(Oc3ccnc4cc(OC)c(OC)cc34)cc2)cc1 [Compound 69, N-{4-[(6,7-Dimethoxy-4-quinolinyl)oxy]phenyl}-(4-butylphenyl)carboxamide]	50
CCCCOc1ccc(C(=O)Nc2ccc(Oc3ccnc4cc(OC)c(OC)cc34)cc2)cc1 [Compound 74, N-{4-[(6,7-Dimethoxy-4-quinolinyl)oxy]phenyl}-(4-butoxyphenyl)carboxamide]	340
COc1cc2nccc(Oc3ccc(NC(=O)c4ccc(Br)cc4)cc3)c2cc1OC [Compound 75, N-{4-[(6,7-Dimethoxy-4-quinolinyl)oxy]phenyl}-(4-bromophenyl)carboxamide]	180
COc1cc2nccc(Oc3ccc(NC(=O)C4CCCC4)cc3)c2cc1OC [Compound 79, N-{4-[(6,7-Dimethoxy-4-quinolinyl)oxy]phenyl}cyclopentanecarboxamide]	340
COc1cc2nccc(Oc3cccc(NC(=O)Nc4ccccc4C(F)(F)F)c3)c2cc1OC [Compound 94]	23
COc1ccccc1NC(=O)Nc1ccc(Oc2ncnc3cc(OC)c(OC)cc23)cc1 [Compound 113, N-{4-[(6,7-Dimethoxy-4-quinazolinyl)oxy]phenyl)-N'-(2-methoxyphenyl)urea]	4
COc1cccc(NC(=O)Nc2ccc(Oc3ncnc4cc(OC)c(OC)cc34)cc2)c1 [Compound 114, N-{4-[(6,7-Dimethoxy-4-quinazolinyl)oxy]phenyl}-N'-(3-methoxyphenyl)urea]	4
CCCCNC(=O)Nc1ccc(Oc2ccnc3cc(OC)c(OC)cc23)cc1 [Compound 139, N-n-Butyl-N'-{4-[(6,7-dimethoxy-4-quinolyl)oxy]phenyl}urea]	5
COc1cc2nccc(Oc3ccc(NC(=O)Nc4ccccc4-c4ccccc4)cc3)c2cc1OC [Compound 175, N-(2-Biphenyl)-N'-{4-[(6,7-dimethoxy-4-quinolyl)oxy]phenyl}urea]	6
COc1cc2nccc(Oc3ccc(NC(=O)Nc4ccc(C(=O)c5ccccc5)cc4)cc3)c2cc1OC [Compound 195, N-{4-[(6,7-Dimethoxy-4-quinolyl)oxy]phenyl}-N'-(4-phenylcarbonylphenyl)urea]	79
CCCCCCNC(=O)Nc1ccc(Oc2ccnc3cc(OC)c(OC)cc23)cc1 [Compound 196, N-Hexyl-N'-{4-[(6,7-dimethoxy-4-quinolyl)oxy]phenyl}urea]	31
CCCCNC(=O)Nc1ccc(Oc2ncnc3cc(OC)c(OC)cc23)cc1 [Compound 220, N-(4-[(6,7-Dimethoxy-4-quinazolinyl)oxy]phenyl)-N'-n-butylurea]	9

Second part, the compound after the results:

IC50 [nM]	SMILES
21	COc1cc2nccc(Oc3ccc(NC(=O)Nc4ccc([N+](=O)[O-])cc4)cc3)c2cc1OC [Compound 46, N-{4-[(6,7-Dimethoxy-4-quinolinyl)oxy]phenyl}-N'-(4-nitrophenyl)urea]
43	CCCCc1ccc(NC(=O)Nc2ccc(Oc3ccnc4cc(OC)c(OC)cc34)cc2)cc1 [Compound 47, N-(4-Butylphenyl)-N'-{4-[(6,7-dimethoxy-4-quinolinyl)oxy]phenyl}urea]
18	COc1cc2nccc(Oc3ccc(NC(=O)Nc4ccc(C(C)=O)cc4)cc3)c2cc1OC [Compound 49, N-(4-Acetylphenyl)-N'-{4-[(6,7-dimethoxy-4-quinolinyl)oxy]phenyl}urea]
9	COc1cc2nccc(Oc3ccc(NC(=O)Nc4ccc(C(C)C)cc4)cc3)c2cc1OC [Compound 51, N-(4-Isopropylphenyl)-N'-{4-[(6,7-dimethoxy-4-quinolinyl)oxy]phenyl}urea]
10	COc1cc2nccc(Oc3ccc(NC(=O)Nc4cccc(C(F)(F)F)c4)cc3)c2cc1OC [Compound 53]
3	COc1cc2nccc(Oc3ccc(NC(=O)Nc4ccccc4C(F)(F)F)cc3)c2cc1OC [Compound 54]
3	COc1cc2nccc(Oc3ccc(NC(=O)Nc4cccc(C)c4)cc3)c2cc1OC [Compound 55, N-{4-[(6,7-Dimethoxy-4-quinolyl)oxy]phenyl}-N'-(3-methylphenyl)urea]
110	COc1cc2nccc(Oc3ccc(NC(=O)c4ccc(N(C)C)cc4)cc3)c2cc1OC [Compound 67, N-{4-[(6,7-Dimethoxy-4-quinolinyl)oxy]phenyl}-(N,N-dimethylaminophenyl)carboxamide]
3	COc1cc2nccc(Oc3ccc(NC(=O)Nc4ccc(C)cc4)cc3)c2cc1OC [Compound 131]
43	COc1cc2nccc(Oc3ccc(NC(=O)NC(C)C)cc3)c2cc1OC [Compound 135]
5	COc1cc2nccc(Oc3ccc(NC(=O)Nc4ccc(SC)cc4)cc3)c2cc1OC [Compound 163]
11	COc1cc2nccc(Oc3ccc(NC(=O)Nc4ccccc4C(C)C)cc3)c2cc1OC [Compound 166, N-(2-Isopropylphenyl)-N'-{4-[(6,7-dimethoxy-4-quinolyl)oxy]phenyl}urea]
4	COc1cc2nccc(Oc3ccc(NC(=O)Nc4ccccc4)cc3)c2cc1OC [Compound 167, N-{4-[(6,7-Dimethoxy-4-quinolyl)oxy]phenyl}-N'-phenylurea]
4	COc1cc2nccc(Oc3ccc(NC(=O)Nc4ccccc4N)cc3)c2cc1OC [Compound 169, N-(2-Aminophenyl)-N'-{4-[(6,7-dimethoxy-4-quinolyl)oxy]phenyl}urea]
10	COc1cc2nccc(Oc3ccc(NC(=O)Nc4cccc(N)c4)cc3)c2cc1OC [Compound 172, N-(3-Aminophenyl)-N'-{4-[(6,7-dimethoxy-4-quinolyl)oxy]phenyl}urea]
2	COc1cc2nccc(Oc3ccc(NC(=O)Nc4cccc5ccccc45)cc3)c2cc1OC [Compound 174, N-{4-[(6,7-Dimethoxy-4-quinolyl)oxy]phenyl}-N'-(1-naphthyl)urea]
6	CCc1ccc(NC(=O)Nc2ccc(Oc3ccnc4cc(OC)c(OC)cc34)cc2)cc1 [Compound 188, N-(4-Ethylphenyl)-N'-{4-[(6,7-dimethoxy-4-quinolyl)oxy]phenyl}urea]
11	COc1cc2nccc(Oc3ccc(NC(=O)NC(=O)c4ccccc4)cc3)c2cc1OC [Compound 189, N-Benzoyl-N'-{4-[(6,7-dimethoxy-4-quinolyl)oxy]phenyl}urea]
4	COc1cc2nccc(Oc3ccc(NC(=O)Nc4cccc(N(C)C)c4)cc3)c2cc1OC [Compound 192]
10	COc1cc2nccc(Oc3ccc(NC(=O)Nc4ccc5c(c4)CCC5)cc3)c2cc1OC [Compound 197, N-(5-Indanyl)-N'-{4-[(6,7-dimethoxy-4-quinolyl)oxy]phenyl}urea]
11	COc1ccc(NC(=O)Nc2ccc(Oc3ccnc4cc(OC)c(OC)cc34)cc2)cc1OC [Compound 198, N-(3,4-Dimethoxyphenyl)-N'-{4-[(6,7-dimethoxy-4-quinolyl)oxy]phenyl}urea]
3	COc1cc2nccc(Oc3ccc(NC(=O)Nc4ccc5c(c4)OCCO5)cc3)c2cc1OC [Compound 199, N-(3,4-Ethylenedioxyphenyl)-N'-{4-[(6,7-dimethoxy-4-quinolyl)oxy]phenyl}urea]
4	COc1ccc(NC(=O)N(C)c2ccc(Oc3ccnc4cc(OC)c(OC)cc34)cc2)cc1 [Compound 200, N-Methyl-N-{4-[(6,7-dimethoxy-4-quinolyl)oxy]phenyl}-N'-(4-methoxyphenyl)urea]
